{"source": "patent US20180312473A1", "about": "“PHENAZINE DERIVATIVES AS ANTIMICROBIAL AGENTS” (priority 2015, published 2018)", "key": {"[1]": {"tested_on": "Staphylococcus aureus and S. epidermidis", "conditions": "cited from earlier work"}, "K. pneumoniae 13883": {"tested_on": "K. pneumoniae 13883", "test": "MIC assay (broth microdilution, CLSI)", "assay_type": "cell-based, Klebsiella pneumoniae", "conditions": "Klebsiella pneumoniae, 13883; read-out: K. pneumoniae 13883 MIC"}, "[2]": {"test": "Aqueous solubility under MIC assay conditions", "assay_type": "physicochemical", "conditions": "MIC assay media, 37 °C, aqueous buffer; read-out: [aq. soluble]"}, "[3]": {"tested_on": "Staphylococcus epidermidis (ATCC 35984), MRSE", "test": "MIC assay (broth microdilution, CLSI)", "assay_type": "cell-based", "conditions": "Staphylococcus epidermidis"}, "[4]": {"tested_on": "S. aureus clinical isolate SA 129", "test": "MIC assay (broth microdilution, CLSI)", "conditions": "Staphylococcus aureus, read-out: MIC, SA 129"}, "MRSA BAA-1707": {"tested_on": "MRSA BAA-1707", "test": "MIC assay (broth microdilution, CLSI)", "conditions": "Staphylococcus aureus, read-out: MIC, MRSA BAA-1707"}, "[5]": {"tested_on": "MRSA-2 (methicillin-resistant Staphylococcus aureus clinical isolate)", "test": "MIC assay (broth microdilution, CLSI)", "assay_type": "cell-based", "conditions": "Staphylococcus aureus, MRSA, read-out: MIC, MRSA-2"}, "[6]": {"tested_on": "VRE (E. faecium ATCC 700221) planktonic cells and biofilms", "test": "Calgary Biofilm Device (CBD) assay, MBC/MBEC", "assay_type": "cell-based, Enterococcus faecium", "conditions": "Enterococcus; Table 8; c lowest concentration tested; read-out: VRE 700221 MBC"}, "A. baumannii 19606": {"tested_on": "A. baumannii 19606", "test": "MIC assay (broth microdilution, CLSI)", "assay_type": "cell-based, Acinetobacter baumannii", "conditions": "Acinetobacter baumannii, 19606; read-out: A. baumannii 19606 MIC"}, "in vitro": {"test": "in vitro", "assay_type": "cell-based", "conditions": "human"}, "[7]": {"tested_on": "S. aureus clinical isolate SA 138", "test": "MIC assay (broth microdilution, CLSI)", "conditions": "Staphylococcus aureus, read-out: MIC, SA 138"}, "[8]": {"tested_on": "S. aureus clinical isolate SA 156", "test": "MIC assay (broth microdilution, CLSI)", "conditions": "Staphylococcus aureus, read-out: MIC, SA 156"}, "P. aeruginosa (PAO1)": {"tested_on": "P. aeruginosa (PAO1)", "test": "MIC assay (broth microdilution, CLSI)", "assay_type": "cell-based", "conditions": "Pseudomonas aeruginosa, PAO1; read-out: PAO1 MIC"}, "[9]": {"tested_on": "MRSA-1 (methicillin-resistant Staphylococcus aureus clinical isolate)", "test": "MIC assay (broth microdilution, CLSI)", "assay_type": "cell-based", "conditions": "Staphylococcus aureus, MRSA, Table 11; read-out: MIC, MRSA-1"}, "MRSA BAA-44": {"tested_on": "MRSA BAA-44", "test": "MIC assay (broth microdilution, CLSI)", "conditions": "Staphylococcus aureus, read-out: MIC, MRSA BAA-44"}, "[10]": {"tested_on": "Enterococcus faecium (ATCC 700221), VRE", "test": "MIC assay (broth microdilution, CLSI)", "assay_type": "cell-based"}, "E. coli UAEC-1": {"tested_on": "E. coli UAEC-1", "test": "MIC assay (broth microdilution, CLSI)", "assay_type": "cell-based", "conditions": "Escherichia coli, UAEC1; read-out: E. coli UAEC-1 MIC"}, "[11]": {"tested_on": "Staphylococcus epidermidis (ATCC 12228)", "test": "MIC assay (broth microdilution, CLSI)", "assay_type": "cell-based", "conditions": "Staphylococcus epidermidis"}, "[12]": {"tested_on": "M. tuberculosis H37Ra (ATCC 25177)", "test": "Mycobacterium tuberculosis MIC assay", "assay_type": "cell-based", "conditions": "Mycobacterium tuberculosis", "in_short": "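Culture diluted to OD600 0.01 and exposed to compounds in 0.5% final DMSO, each compound tested in three rows. Growth read as OD600 absorbance. Data from three independent experiments.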"}, "human red blood cells": {"tested_on": "human red blood cells", "test": "Hemolysis assay with red blood cells", "conditions": "human, 1 h, 200 μM, pH 7.2", "in_short": "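Washed human red blood cells exposed to compounds added from DMSO stocks, 1 h at 37° C.; supernatant OD read at 405 nm after centrifugation. % hemolysis calculated relative to DMSO (0%) and Triton X (100%) controls, from three independent experiments.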"}, "MRSA-2": {"tested_on": "MRSA-2", "test": "MIC assay with Tiron or metal(II) cation co-treatment", "assay_type": "cell-based, Staphylococcus aureus", "conditions": "Staphylococcus aureus; MRSA-2, no additive (Table 9); read-out: MIC"}, "[13]": {"tested_on": "methicillin-resistant S. aureus (MRSA) strains", "test": "MIC assay, values summarised over MRSA strains", "assay_type": "cell-based, Staphylococcus aureus"}}, "note": "Where “and” joins values, the source holds several entries; their conditions need not be identical. Equal values may be shown once. Read-outs that look alike come from different tables or passages of the source."}
{"smiles": "Oc1cccc2nc3ccccc3nc12", "note": "[1-hydroxyphenazine]", "values": [{"measurement": "activity against staphylococcal pathogens", "setting": "[1]; earlier report", "value": "inactive"}]}
{"smiles": "Oc1c(Br)ccc2nc3ccccc3nc12", "note": "[Compound 1, 2-bromo-1-hydroxyphenazine]", "values": [{"measurement": "MIC against S. aureus and S. epidermidis", "setting": "[1]; earlier report of the group", "value": "6.25 μM and 1.7 μg/mL"}]}
{"smiles": "Oc1ccc(Br)c2nc3cc(Cl)c(Cl)cc3nc12", "note": "[Compound 11]", "values": [{"measurement": "MIC", "setting": "K. pneumoniae 13883", "value": "> 100", "unit": "µM"}, {"measurement": "solubility at 16 h", "setting": "[2]", "value": 200, "unit": "µM"}, {"measurement": "MIC", "setting": "[3]; Table 2A, read-out: MIC, Staphylococcus epidermidis (ATCC 35984)", "value": 1.56, "unit": "µM"}, {"measurement": "MIC", "setting": "[3]; Table 7, read-out: MIC, MRSE 35984", "value": 1.56, "unit": "µM"}, {"measurement": "MIC", "setting": "[4]", "value": 0.78, "unit": "µM"}, {"measurement": "MIC", "setting": "MRSA BAA-1707", "value": 0.3, "unit": "µM"}, {"measurement": "MIC", "setting": "[5]; Table 2A", "value": 0.78, "unit": "µM"}, {"measurement": "MIC", "setting": "[5]; Table 7, a midpoint of 2-fold range, b lowest concentration tested", "value": 0.78, "unit": "µM"}, {"measurement": "MBC", "setting": "[6]", "value": 100, "unit": "µM"}, {"measurement": "MIC", "setting": "A. baumannii 19606", "value": "> 100", "unit": "µM"}, {"measurement": "IC50 at 24 h", "setting": "in vitro", "value": "> 100", "unit": "µM"}, {"measurement": "MIC", "setting": "[7]", "value": 0.78, "unit": "µM"}, {"measurement": "MIC", "setting": "[8]", "value": 1.17, "unit": "µM"}, {"measurement": "MIC", "setting": "P. aeruginosa (PAO1)", "value": "> 100", "unit": "µM"}, {"measurement": "MIC", "setting": "[9]", "value": 0.39, "unit": "µM"}, {"measurement": "MIC", "setting": "MRSA BAA-44", "value": 1.17, "unit": "µM"}, {"measurement": "MIC", "setting": "[10]; Enterococcus faecium, Table 2A, read-out: MIC, Enterococcus faecium (ATCC 700221)", "value": 6.25, "unit": "µM"}, {"measurement": "MIC", "setting": "[10]; Table 7, b lowest concentration tested, read-out: MIC, VRE 700221", "value": 6.25, "unit": "µM"}, {"measurement": "MIC", "setting": "E. coli UAEC-1", "value": "> 100", "unit": "µM"}, {"measurement": "MIC", "setting": "[11]; ATCC12228, read-out: MIC, S. epidermidis 12228", "value": 3.13, "unit": "µM"}, {"measurement": "MIC", "setting": "[11]; ATCC12228, read-out: MIC, Staphylococcus epidermidis (ATCC 12228)", "value": 3.13, "unit": "µM"}, {"measurement": "MIC", "setting": "[12]; Table 7, read-out: MIC, M. tuberculosis H37Ra", "value": 3.13, "unit": "µM"}, {"measurement": "MIC", "setting": "[12]; read-out: MIC, M. tuberculosis", "value": "~1", "unit": "mg/L"}, {"measurement": "% Hemolysis (200 μM)", "setting": "human red blood cells", "value": 2.7, "unit": "%"}, {"measurement": "% Hemolysis at 200 μM", "setting": "human red blood cells", "value": 2.7, "unit": "%"}, {"measurement": "MIC", "setting": "MRSA-2", "value": 0.78, "unit": "µM"}, {"measurement": "growth inhibition activity against at least one MRSA strain", "setting": "[13]", "value": "sub-micromolar"}]}
